Test results taken from patent US20090311217A1, “3-SUBSTITUTED-1H-INDOLE COMPOUNDS, THEIR USE AS MTOR KINASE AND PI3 KINASE INHIBITORS, AND THEIR SYNTHESES” (priority 2008, published 2009).
Where two headings read alike, the source gives them in different places.

Tests used:
Type in all cases: biochemical
[1] = molecular target: PI3K-alpha (Homo sapiens, UniProt P42336); assay: PI3K-alpha fluorescence polarization assay
[2] = molecular target: T1, human TOR (Homo sapiens, UniProt P42345); assay: mTOR enzyme assay (DELFIA, His6-S6K substrate); conditions: read-out: mTOR Kinase Avg. IC50
T1 construct: FLAG

[3] = molecular target: PI3K-gamma (Homo sapiens, UniProt P48736); assay: PI3K-gamma fluorescence polarization assay; conditions: PI3Kγ Avg. IC50
Summary of the method: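 FP displacement read-out: 100 nM GST-GRP1 PH domain plus 5 nM BODIPY-TMR-IP4 added after EDTA stop. Preceding kinase step: 5 ng enzyme, diC8-PI(4,5)P2 2.5 μM, ATP 25 μM, MgCl2 2.5 mM, HEPES 5 mM pH 7, one hour, 25° C.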

[4] = molecular target: PI3K-beta (Homo sapiens, UniProt P42338); assay: PI3K-beta fluorescence polarization assay; conditions: read-out: PI3Kβ Avg. IC50
Protocol: PI3K-Alpha, PI3K-Beta, PI3K-Gamma, and PI3K-delta Fluorescence Polarization Assay Protocols
PI3-Kinase reactions were performed in 5 mM HEPES, pH 7, 2.5 mM MgCl2, and 25 μM ATP, with diC8-PI(4,5)P2 (Echelon, Salt Lake City Utah) as substrate. Nunc 384-well black polypropylene fluorescent plates were used for PI3K assays. Reactions were quenched by the addition of EDTA to a final concentration of 10 mM. Final reaction volumes were 10 μl. For evaluation of PI3K inhibitors, 5 ng of enzyme (PI3K-alpha, beta, gamma, or delta) and 2.5 μM of substrate was used per […] reaction volume, and inhibitor concentrations ranged from 100 μM to 20 μM; the final level of DMSO in reactions never exceeded 2%. Reactions were allowed to proceed for one hour at 25° C. After 1 hour, GST-tagged GRP1 (general receptor for phosphoinositides) PH domain fusion protein was added to a final concentration of 100 nM, and BODIPY-TMRI(1,3,4,5)P4 (Echelon) was also added to a final concentration of 5 nM. Final sample volumes were 25 μl with a final DMSO concentration of 0.8%. Assay Plates were read on Perkin-Elmer Envision plate readers with appropriate filters for Tamra [BODIPY-TMRI(1,3,4,5)P4]. Data obtained were used to calculate enzymatic activity and enzyme inhibition by inhibitor compounds.

[5] = molecular target: PI3K-delta (Homo sapiens, UniProt O00329); assay: PI3K-delta fluorescence polarization assay; conditions: read-out: PI3Kδ Avg. IC50
Chain of PI3K-delta (O00329 whole entry, species assumed): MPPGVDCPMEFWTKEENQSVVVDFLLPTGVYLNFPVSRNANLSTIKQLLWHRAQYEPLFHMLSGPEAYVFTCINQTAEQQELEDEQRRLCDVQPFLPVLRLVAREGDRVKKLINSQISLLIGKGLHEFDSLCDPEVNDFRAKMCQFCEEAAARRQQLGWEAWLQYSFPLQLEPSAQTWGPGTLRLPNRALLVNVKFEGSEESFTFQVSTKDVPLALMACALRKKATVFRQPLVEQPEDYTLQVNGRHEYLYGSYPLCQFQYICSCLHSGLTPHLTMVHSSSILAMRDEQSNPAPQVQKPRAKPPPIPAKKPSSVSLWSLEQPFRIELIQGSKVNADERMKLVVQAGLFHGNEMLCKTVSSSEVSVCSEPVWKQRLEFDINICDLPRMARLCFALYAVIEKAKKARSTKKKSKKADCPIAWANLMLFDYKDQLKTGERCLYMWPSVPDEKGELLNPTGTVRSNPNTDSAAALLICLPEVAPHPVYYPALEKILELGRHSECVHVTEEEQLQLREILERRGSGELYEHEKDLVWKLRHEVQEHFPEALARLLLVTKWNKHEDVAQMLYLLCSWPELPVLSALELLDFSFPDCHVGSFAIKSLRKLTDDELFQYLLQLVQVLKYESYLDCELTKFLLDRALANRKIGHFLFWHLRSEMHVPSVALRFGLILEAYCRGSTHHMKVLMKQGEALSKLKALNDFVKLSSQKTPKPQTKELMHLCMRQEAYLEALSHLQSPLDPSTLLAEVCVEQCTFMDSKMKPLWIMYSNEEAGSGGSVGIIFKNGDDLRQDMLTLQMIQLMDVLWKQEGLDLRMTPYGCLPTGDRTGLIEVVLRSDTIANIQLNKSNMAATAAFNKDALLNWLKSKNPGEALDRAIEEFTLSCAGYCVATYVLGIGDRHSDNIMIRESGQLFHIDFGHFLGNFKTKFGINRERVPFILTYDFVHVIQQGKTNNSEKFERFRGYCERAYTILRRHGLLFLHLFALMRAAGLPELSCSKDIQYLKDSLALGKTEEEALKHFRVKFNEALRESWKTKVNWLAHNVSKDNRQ
Chain of PI3K-delta (P27986 whole entry partner, species assumed): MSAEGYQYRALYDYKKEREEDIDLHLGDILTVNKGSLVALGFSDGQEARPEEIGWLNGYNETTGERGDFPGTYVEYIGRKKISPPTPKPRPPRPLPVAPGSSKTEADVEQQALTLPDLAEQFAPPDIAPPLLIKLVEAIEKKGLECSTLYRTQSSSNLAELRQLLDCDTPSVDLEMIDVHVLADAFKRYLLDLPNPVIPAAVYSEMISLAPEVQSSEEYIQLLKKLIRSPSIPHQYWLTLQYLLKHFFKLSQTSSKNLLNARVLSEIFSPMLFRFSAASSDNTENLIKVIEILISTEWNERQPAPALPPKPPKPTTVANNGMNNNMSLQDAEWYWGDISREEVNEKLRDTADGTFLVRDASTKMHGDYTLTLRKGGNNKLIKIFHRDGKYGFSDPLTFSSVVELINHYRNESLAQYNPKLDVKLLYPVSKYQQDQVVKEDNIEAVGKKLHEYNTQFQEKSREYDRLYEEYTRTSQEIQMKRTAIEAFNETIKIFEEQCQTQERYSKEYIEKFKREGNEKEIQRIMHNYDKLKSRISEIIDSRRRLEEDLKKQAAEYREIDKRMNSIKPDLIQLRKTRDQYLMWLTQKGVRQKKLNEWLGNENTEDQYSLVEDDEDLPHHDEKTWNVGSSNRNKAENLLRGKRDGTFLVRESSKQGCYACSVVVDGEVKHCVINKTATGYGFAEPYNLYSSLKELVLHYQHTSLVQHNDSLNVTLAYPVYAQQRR

Chain of PI3K-alpha (P42336 whole entry, species assumed): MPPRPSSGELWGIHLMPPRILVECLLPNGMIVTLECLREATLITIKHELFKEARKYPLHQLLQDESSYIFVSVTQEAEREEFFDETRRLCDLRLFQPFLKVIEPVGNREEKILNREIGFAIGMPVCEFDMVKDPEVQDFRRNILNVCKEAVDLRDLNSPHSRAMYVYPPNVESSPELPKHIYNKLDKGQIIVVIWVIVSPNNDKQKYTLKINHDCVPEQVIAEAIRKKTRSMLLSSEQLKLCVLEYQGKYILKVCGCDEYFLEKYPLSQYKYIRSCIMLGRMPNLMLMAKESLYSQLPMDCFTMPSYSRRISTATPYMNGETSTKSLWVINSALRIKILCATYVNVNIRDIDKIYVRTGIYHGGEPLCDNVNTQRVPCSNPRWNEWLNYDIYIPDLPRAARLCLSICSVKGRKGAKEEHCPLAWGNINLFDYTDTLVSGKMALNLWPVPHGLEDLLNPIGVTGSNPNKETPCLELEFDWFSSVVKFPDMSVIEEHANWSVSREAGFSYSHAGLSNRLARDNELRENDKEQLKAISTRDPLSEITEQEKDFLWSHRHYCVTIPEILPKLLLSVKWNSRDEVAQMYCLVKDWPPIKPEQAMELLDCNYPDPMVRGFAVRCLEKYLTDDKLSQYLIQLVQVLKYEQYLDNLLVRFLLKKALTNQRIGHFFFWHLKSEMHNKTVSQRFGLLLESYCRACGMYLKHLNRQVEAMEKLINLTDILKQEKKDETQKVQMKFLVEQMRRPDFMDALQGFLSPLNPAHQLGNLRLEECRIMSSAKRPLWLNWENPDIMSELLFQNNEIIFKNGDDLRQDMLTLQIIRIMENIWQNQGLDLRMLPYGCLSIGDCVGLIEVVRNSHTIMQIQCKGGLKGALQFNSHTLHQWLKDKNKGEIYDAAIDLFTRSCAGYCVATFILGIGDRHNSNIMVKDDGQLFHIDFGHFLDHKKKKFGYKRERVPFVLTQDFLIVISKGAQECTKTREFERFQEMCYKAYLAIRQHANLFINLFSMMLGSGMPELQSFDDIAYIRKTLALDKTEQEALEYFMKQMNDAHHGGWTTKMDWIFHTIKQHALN
Chain of PI3K-alpha (P27986 whole entry partner, species assumed): as the sequence (P27986 whole entry partner, species assumed) above
Chain of PI3K-beta (P42338 whole entry, species assumed): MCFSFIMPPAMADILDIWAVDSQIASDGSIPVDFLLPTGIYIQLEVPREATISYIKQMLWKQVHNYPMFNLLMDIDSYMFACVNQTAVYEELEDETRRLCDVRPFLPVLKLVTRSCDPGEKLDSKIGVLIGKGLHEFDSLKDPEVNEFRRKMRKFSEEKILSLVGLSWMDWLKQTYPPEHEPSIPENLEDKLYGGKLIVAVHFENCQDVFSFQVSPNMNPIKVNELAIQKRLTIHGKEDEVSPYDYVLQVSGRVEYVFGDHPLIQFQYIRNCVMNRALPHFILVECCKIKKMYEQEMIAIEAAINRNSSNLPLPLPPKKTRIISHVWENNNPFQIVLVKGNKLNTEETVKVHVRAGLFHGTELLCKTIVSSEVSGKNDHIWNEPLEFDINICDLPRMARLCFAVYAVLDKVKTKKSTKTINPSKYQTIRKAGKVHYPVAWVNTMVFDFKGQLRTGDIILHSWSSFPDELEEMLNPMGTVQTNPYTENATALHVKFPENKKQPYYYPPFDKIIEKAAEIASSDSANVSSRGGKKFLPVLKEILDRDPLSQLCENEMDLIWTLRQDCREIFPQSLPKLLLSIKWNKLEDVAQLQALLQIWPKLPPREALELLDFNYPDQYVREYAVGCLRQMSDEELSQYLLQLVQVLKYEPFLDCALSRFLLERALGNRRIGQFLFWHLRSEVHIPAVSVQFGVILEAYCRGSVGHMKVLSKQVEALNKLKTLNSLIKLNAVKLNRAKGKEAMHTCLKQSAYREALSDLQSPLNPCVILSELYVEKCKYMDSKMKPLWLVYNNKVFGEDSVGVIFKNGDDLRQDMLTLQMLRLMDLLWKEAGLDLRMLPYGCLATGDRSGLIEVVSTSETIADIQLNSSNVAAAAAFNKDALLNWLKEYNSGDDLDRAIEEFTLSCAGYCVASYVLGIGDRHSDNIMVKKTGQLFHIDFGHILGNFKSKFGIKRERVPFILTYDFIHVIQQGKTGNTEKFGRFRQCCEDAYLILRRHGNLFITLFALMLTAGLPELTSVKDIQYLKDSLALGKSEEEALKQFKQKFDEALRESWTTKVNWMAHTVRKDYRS
Chain of PI3K-beta (P27986 whole entry partner, species assumed): as the sequence (P27986 whole entry partner, species assumed) above
Chain of PI3K-gamma (P48736 whole entry, species assumed, the tested form may be a part): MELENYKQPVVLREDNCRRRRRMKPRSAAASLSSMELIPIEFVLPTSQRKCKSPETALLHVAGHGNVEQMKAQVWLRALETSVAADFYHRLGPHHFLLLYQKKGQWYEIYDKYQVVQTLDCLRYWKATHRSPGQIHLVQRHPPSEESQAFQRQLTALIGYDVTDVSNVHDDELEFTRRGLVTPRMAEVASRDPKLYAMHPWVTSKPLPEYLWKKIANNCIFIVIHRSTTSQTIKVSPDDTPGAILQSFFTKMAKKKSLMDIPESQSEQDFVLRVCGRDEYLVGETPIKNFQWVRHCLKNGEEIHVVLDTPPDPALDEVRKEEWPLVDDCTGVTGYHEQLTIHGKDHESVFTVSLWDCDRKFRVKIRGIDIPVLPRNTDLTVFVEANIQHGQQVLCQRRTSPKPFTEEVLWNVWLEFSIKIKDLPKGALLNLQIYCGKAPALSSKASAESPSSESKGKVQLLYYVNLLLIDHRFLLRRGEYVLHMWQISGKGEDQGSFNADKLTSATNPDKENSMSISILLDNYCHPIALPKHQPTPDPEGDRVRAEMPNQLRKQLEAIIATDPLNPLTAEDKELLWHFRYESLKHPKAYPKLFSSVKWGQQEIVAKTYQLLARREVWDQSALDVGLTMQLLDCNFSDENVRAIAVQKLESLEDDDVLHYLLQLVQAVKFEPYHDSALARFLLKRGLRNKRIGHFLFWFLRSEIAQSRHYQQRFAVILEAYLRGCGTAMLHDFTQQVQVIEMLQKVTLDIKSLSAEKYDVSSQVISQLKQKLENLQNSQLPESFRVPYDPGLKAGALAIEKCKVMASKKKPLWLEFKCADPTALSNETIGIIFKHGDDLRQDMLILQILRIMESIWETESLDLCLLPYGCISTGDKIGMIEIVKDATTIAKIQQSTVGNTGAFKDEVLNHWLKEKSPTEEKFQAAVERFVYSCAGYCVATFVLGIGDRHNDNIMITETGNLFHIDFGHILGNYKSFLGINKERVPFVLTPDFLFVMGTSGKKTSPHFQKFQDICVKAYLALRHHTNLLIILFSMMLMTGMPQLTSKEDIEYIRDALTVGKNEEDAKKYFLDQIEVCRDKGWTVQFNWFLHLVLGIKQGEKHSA

Molecule `COc1ccc2c(c1)c(C=C1Oc3cc(O)cc(O)c3C1=O)c(C)n2CCCN1CCN(C)CC1` [Example 95, 4,6-dihydroxy-2-({5-methoxy-2-methyl-1-[3-(4-methylpiperazin-1-yl)propyl]-1H-indol-3-yl}methylene)-1-benzofuran-3(2H)-one] has an IC50 ([1]; PI3Kα Avg. IC50) of 0.0147 µM, an IC50 [2] of 0.153 µM and an IC50 [3] of 0.402 µM. The IC50 [4] was 0.027 µM and the IC50 [5] was 0.002 µM.

`COc1ccc2c(c1)c(/C=C1\Oc3cc(O)cc(O)c3C1=O)c(C(F)(F)F)n2CC(=O)N(C)C` [Example 333, 2-{3-[(Z)-(4,6-Dihydroxy-3-oxo-1-benzofuran-2(3H)-ylidene)methyl]-5-methoxy-2-(trifluoromethyl)-1H-indol-1-yl}-N,N-dimethylacetamide] gave an IC50 ([1]; read-out: PI3Kα Avg. IC50) of 0.066 µM, an IC50 [2] of 0.053 µM and an IC50 [3] of 0.159 µM. It also gave an IC50 [4] of 0.203 µM and an IC50 [5] of 0.051 µM.

`COc1ccc2c(c1)c(/C=C1\Oc3cc(O)cc(O)c3C1=O)c(C)n2CCn1ccnc1` [Example 328, (2Z)-4,6-Dihydroxy-2-({1-[2-(1H-imidazol-1-yl)ethyl]-5-methoxy-2-methyl-1H-indol-3-yl}methylene)-1-benzofuran-3(2H)-one] gave an IC50 ([1]; read-out: PI3Kα Avg. IC50) of 0.006 µM, an IC50 [2] of less than 0.024 µM and an IC50 [3] of 0.0155 µM. For the same molecule, the IC50 [4] was 0.0025 µM and the IC50 [5] was 0.002 µM.

With `COc1ccc2[nH]c(-c3ccccc3)c(C=C3Oc4cc(O)cc(O)c4C3=O)c2c1` [Example 70, 4,6-dihydroxy-2-[(5-methoxy-2-phenyl-1H-indol-3-yl)methylene]-1-benzofuran-3(2H)-one] the IC50 [2] was less than 0.03 µM, the IC50 [3] was 0.0134 µM and the IC50 [4] was 0.026 µM. It also gave an IC50 [5] of 0.0053 µM.

With `CCn1c(C)c(/C=C2\Oc3ccc(NC(=O)Nc4ccc(C(=O)N5CCN(C)CC5)cc4)cc3C2=O)c2cc(OC)ccc21` [Compound 620, 1-{(2Z)-2-[(1-ethyl-5-methoxy-2-methyl-1H-indol-3-yl)methylene]-3-oxo-2,3-dihydro-1-benzofuran-5-yl}-3-{4-[(4-methylpiperazin-1-yl)carbonyl]phenyl}urea] the IC50 ([1]; read-out: PI3Kα Avg. IC50) was 0.0003 µM, the IC50 [2] was 0.24 µM and the IC50 [5] was 0.002 µM.

Work on `CNC(=O)Nc1ccc2c(c1)C(=O)/C(=C/c1c(-c3c(C)nn(C)c3C)[nH]c3ccc(OC)cc13)O2` [Compound 627, 1-[(2Z)-2-{[5-methoxy-2-(1,3,5-trimethyl-1H-pyrazol-4-yl)-1H-indol-3-yl]methylidene}-3-oxo-2,3-dihydro-1-benzofuran-5-yl]-3-methylurea] yielded an IC50 ([1]; read-out: PI3Kα Avg. IC50) of 0.0006 µM, an IC50 [3] of 0.00465 µM and an IC50 [4] of 0.0285 µM. The IC50 [5] was 0.0045 µM.

`COc1ccc2c(c1)c(/C=C1\Oc3ccc(NC(=O)Nc4ccc(C(=O)N5CCN(C)CC5)cc4)cc3C1=O)c(C)n2CCN1CCN(C)CC1` [Compound 618, 1-[(2Z)-2-({5-methoxy-2-methyl-1-[2-(4-methylpiperazin-1-yl)ethyl]-1H-indol-3-yl}methylene)-3-oxo-2,3-dihydro-1-benzofuran-5-yl]-3-{4-[(4-methylpiperazin-1-yl)carbonyl]phenyl}urea] gave an IC50 ([1]; read-out: PI3Kα Avg. IC50) of 0.0005 µM, an IC50 [2] of 0.1 µM and an IC50 [5] of 0.005 µM.

In the case of `COc1ccc2c(c1)c(C=C1Oc3cc(O)cc(O)c3C1=O)c(C)n2CCN1CCN(C)CC1` [Example 108, 4,6-dihydroxy-2-({5-methoxy-2-methyl-1-[2-(4-methylpiperazin-1-yl)ethyl]-1H-indol-3-yl}methylene)-1-benzofuran-3(2H)-one], the IC50 ([1]; PI3Kα Avg. IC50) is reported as 0.005 µM, the IC50 [2] is reported as less than 0.034 µM and the IC50 [3] is reported as 0.474 µM. The IC50 [4] was 0.0075 µM.

`COc1ccc2c(c1)c(/C=C1\Oc3cc(O)cc(O)c3C1=O)c(C)n2CCN1CCN(C)CC1` [Example 309, (2Z)-4,6-Dihydroxy-2-({5-methoxy-2-methyl-1-[2-(4-methylpiperazin-1-yl)ethyl]-1H-indol-3-yl}methylene)-1-benzofuran-3(2H)-one] gave an IC50 ([1]; read-out: PI3Kα Avg. IC50) of 0.002 µM, an IC50 [2] of less than 0.027 µM and an IC50 [3] of 0.268 µM. The IC50 [4] was 0.0065 µM.

`COc1ccc2c(c1)c(/C=C1\Oc3ccc(NC(=O)Nc4ccc(C(=O)N5CCN(C)CC5)cc4)cc3C1=O)c(C)n2CCO` [Compound 619, 1-[(2Z)-2-{[1-(2-hydroxyethyl)-5-methoxy-2-methyl-1H-indol-3-yl]methylene}-3-oxo-2,3-dihydro-1-benzofuran-5-yl]-3-{4-[(4-methylpiperazin-1-yl)carbonyl]phenyl}urea] showed an IC50 ([1]; read-out: PI3Kα Avg. IC50) of 0.0002 µM, an IC50 [2] of 0.038 µM and an IC50 [5] of 0.0025 µM.

`COc1ccc2c(c1)c(C=C1Oc3cc(O)cc(O)c3C1=O)c(C)n2CCCCCl` [Example 87, 2-{[1-(4-chlorobutyl)-5-methoxy-2-methyl-1H-indol-3-yl]methylene}-4,6-dihydroxy-1-benzofuran-3(2H)-one] was tested, and the IC50 [2] was less than 0.024 µM, the IC50 [3] was 0.142 µM and the IC50 [4] was 0.072 µM. It also gave an IC50 [5] of 0.006 µM.

Work on `COc1ccc2c(c1)c(/C=C1\Oc3ccc(NC(=O)Nc4cccnc4)cc3C1=O)c(C1CCCC1)n2CCN1CCN(C)CC1` [Compound 638, 1-[(2Z)-2-({2-cyclopentyl-5-methoxy-1-[2-(4-methylpiperazin-1-yl)ethyl]-1H-indol-3-yl}methylene)-3-oxo-2,3-dihydro-1-benzofuran-5-yl]-3-pyridin-3-ylurea] yielded an IC50 ([1]; read-out: PI3Kα Avg. IC50) of 0.003 µM, an IC50 [2] of 0.008 µM and an IC50 [3] of 0.214 µM.

`CCn1c(C)c(/C=C2\Oc3ccc(NC(=O)Nc4ccc(N(C)C(=O)CCN(C)C)cc4)cc3C2=O)c2cc(OC)ccc21` [Compound 694, N-{4-[({(2Z)-2-[(1-ethyl-5-methoxy-2-methyl-1H-indol-3-yl)methylidene]-3-oxo-2,3-dihydro-1-benzofuran-5-yl}carbamoyl)amino]phenyl}-N,N3,N3-trimethyl-b-alaninamide] showed an IC50 ([1]; read-out: PI3Kα Avg. IC50) of 0.004 µM, an IC50 [2] of 0.155 µM and an IC50 [3] of 0.095 µM.

Work on `Cn1cc(/C=C2\Oc3cc(O)cc(O)c3C2=O)c2c(-c3ccc(F)cc3)cccc21` [Example 364, (2Z)-2-{[4-(4-Fluorophenyl)-1-methyl-1H-indol-3-yl]methylene}-4,6-dihydroxy-1-benzofuran-3(2H)-one] yielded an IC50 ([1]; read-out: PI3Kα Avg. IC50) of 0.698 µM, an IC50 [2] of 0.123 µM and an IC50 [3] of 1.28 µM.

Molecule `Cn1c(-c2ccc(F)cc2)c(C=C2Oc3cc(O)cc(O)c3C2=O)c2ccccc21` [Example 200, 2-{[2-(4-fluorophenyl)-1-methyl-1H-indol-3-yl]methylene}-4,6-dihydroxy-1-benzofuran-3(2H)-one] has an IC50 ([1]; read-out: PI3Kα Avg. IC50) of 1.09 µM, an IC50 [2] of 0.22 µM and an IC50 [3] of 3.07 µM.

`COc1ccc2[nH]c(-c3c(C)nn(C)c3C)c(/C=C3\Oc4ccc(NC(=O)Nc5cccnc5)cc4C3=O)c2c1` [Compound 635, 1-[(2Z)-2-{[5-methoxy-2-(1,3,5-trimethyl-1H-pyrazol-4-yl)-1H-indol-3-yl]methylene}-3-oxo-2,3-dihydro-1-benzofuran-5-yl]-3-pyridin-3-ylurea] showed an IC50 ([1]; read-out: PI3Kα Avg. IC50) of 0.0005 µM, an IC50 [2] of 0.005 µM and an IC50 [3] of 0.0025 µM.

Molecule `COc1ccc2[nH]c(-c3c(C)nn(C)c3C)c(/C=C3\Oc4ccc(NC(=O)Nc5ccc(C(=O)NCCN(C)C)cc5)cc4C3=O)c2c1` [Compound 711, N-[2-(dimethylamino)ethyl]-4-({[(2Z)-2-{[5-methoxy-2-(1,3,5-trimethyl-1H-pyrazol-4-yl)-1H-indol-3-yl]methylidene}-3-oxo-2,3-dihydro-1-benzofuran-5-yl]carbamoyl}amino)benzamide] has an IC50 ([1]; read-out: PI3Kα Avg. IC50) of 0.0004 µM, an IC50 [2] of less than 0.001 µM and an IC50 [3] of 0.00225 µM.

`COc1ccc2c(c1)c(/C=C1\Oc3cc(NC(C)=O)ccc3C1=O)cn2CCCN(C)C` [Example 407, N-(2Z)-[2-({1-[3-(Dimethylamino)propyl]-5-methoxy-1H-indol-3-yl}methylene)-3-oxo-2,3-dihydro-1-benzofuran-6-yl]acetamide] was tested, and the IC50 ([1]; read-out: PI3Kα Avg. IC50) was greater than 10 µM, the IC50 [2] was greater than 20 µM and the IC50 [3] was greater than 10 µM.

`COc1ccc2[nH]c(-c3c(C)nn(C)c3C)c(/C=C3\Oc4ccc(NC(=O)Nc5ccc(C(=O)N(C)C)cc5)cc4C3=O)c2c1` [Compound 704, 4-({[(2Z)-2-{[5-methoxy-2-(1,3,5-trimethyl-1H-pyrazol-4-yl)-1H-indol-3-yl]methylidene}-3-oxo-2,3-dihydro-1-benzofuran-5-yl]carbamoyl}amino)-N,N-dimethylbenzamide] was tested, and the IC50 ([1]; read-out: PI3Kα Avg. IC50) was 0.0006 µM, the IC50 [2] was 0.004 µM and the IC50 [3] was 0.004 µM.

Work on `Cn1cc(C=C2Oc3cc(O)cc(O)c3C2=O)c2c(C#N)cccc21` [Example 188, 3-[(4,6-dihydroxy-3-oxo-1-benzofuran-2(3H)-ylidene)methyl]-1-methyl-1H-indole-4-carbonitrile] yielded an IC50 ([1]; read-out: PI3Kα Avg. IC50) of 1.8 µM, an IC50 [2] of 0.26 µM and an IC50 [3] greater than 10 µM.

`COc1ccc2c(c1)c(/C=C1\Oc3c(ccc(O)c3Cl)C1=O)c(C)n2CCN1CCN(C)CC1` [Example 451, (2Z)-7-Chloro-6-hydroxy-2-({5-methoxy-2-methyl-1-[2-(4-methylpiperazin-1-yl)ethyl]-1H-indol-3-yl}methylene)-1-benzofuran-3(2H)-one] showed an IC50 ([1]; read-out: PI3Kα Avg. IC50) of 0.375 µM, an IC50 [2] greater than 20 µM and an IC50 [3] of 7.74 µM.
